Columns and labels:
[1] = system: Mouse fibrosarcoma Meth A; assay: TEST 1: antitumor activity of WF 2015 A in experimental tumor system in mice (Meth A); format: in vivo, mouse (Balb/c); conditions: at 14 days, mean ± S.E., n = 5, Control 1136.6 ± 138.3
Method: The antitumor activity of WF 2015 A was determined in experimental tumor system in mice.
Mouse fibrosarcoma Meth A was implanted intradermally into Balb/c mice (female, 8 weeks age) at an inoculum size of 1×10^5 cells per mouse. Twenty-four hours after the implantation of tumor cells, graded doses of WF 2015 A were administered to the mice intravenously. Treatments were once a day on day 1, 2, 3, 4 and 7, 8, 9, 10 after the tumor inoculation. Control animals received intravenous doses of physiological saline solution. The injection volume was 0.2 ml in all experiments. Five mice were used for each experimental group.
Tumor weight at 14 days after administration, as derived from caliper measurements of the length and width of tumors, was calculated by the formula: Tumor weight (mg)=1/2×a×b^2, where a represents the length and b represents the width (mm).

[2] = system: C57BL/6 responder cells (mixed lymphocyte reaction); assay: TEST 4: suppression of in vitro mixed lymphocyte reaction (MLR); format: cell-based, mouse (C57BL/6, BALB/C); conditions: 4080 min
Method: The MLR tests were carried out in microtiter plates, with each well containing specified concentration of WF 2015 A and 5×10^5 C57BL/6 responder cells (H-2^b), 5×10^5 mitomycin C treated (25 μg/ml mitomycin C at 37° C. for 30 minutes) BALB/C stimulator cells (H-2^d) in 0.2 ml RPMI 1640 medium, supplemented with 10% fetal calf serum, 2mM glutamine, 3×10^-5 M 2-mercaptoethanol, 24 mM sodium bicarbonate, penicillin (50 unit/ml) and streptomycin (50 μ/ml). The cells were incubated at 37° C. in a humidified atmosphere of 5% CO2 :95% air for 68 hours and pulsed with ^3 H-thymidine (0.5 μCi) 4 hours before the cells were collected. Radio-activity of the cells was assayed by B-counter. From the resultant data, MLR suppression (%) was calculated.

[3] = system: mouse lymphoma EL-4 cell; assay: TEST 2: in vitro cytotoxicity of WF 2015, EL-4 cells; format: cell-based; conditions: 48 hours incubation, 37° C.
Method: (§1) Human lung adenocarcinoma A549 cell and mouse lymphoma EL-4 cell were used in this study. A549 cells were propagated as monolayer culture in Dulbecco's medium supplemented with 10% heat inactivated fetal bovine serum (FBS), penicillin G (60 μg/ml) and streptomycin (20 μg/ml) and harvested by trypsinization. EL-4 cells were maintained in RPMI medium supplemented with 10% FBS and the antibiotics in culture flasks.
(§2) Exponentially growing cells of A 549 or EL-4, which harvested from the cultures, were suspended in flask in the appropriate medium (Dulbecco's or RPMI medium supplemented with 10% FBS and antibiotics) at a concentration of 2×10^4 cells/ml or 2×10^5 cells/ml. respectively. Cells were treated with the graded doses of WF 2015 in plastic tissue culture dishes.
(§3) Concentration of the substance required for 50% inhibition of cell growth (IC50 value, μg/ml) was determined by plotting the logarithm of the drug concentration versus the growth rate (percentage of control) of the treated cells after 120 hours incubation for A 549 cells and 48 hours incubation for EL-4 cells at 37° C. in humidified atmosphere of 5% carbon dioxide.

[4] = system: Human MX-1 mammary; assay: TEST 5: antitumor activity in vivo (human MX-1 mammary in nude mice); set-up: species or system human tumor in BALB/c nu/nu mice; conditions: day 0→4, 7→11, 14→18, evaluated day 21, n = 8
Method: Human MX-1 mammary (each fragment, 3×3×3 mm), maintained s.c. by serial passage in female BALB/c nu/nu mice aged 6 weeks was implanted s.c. to female BALB/c nu/nu mice on day 0, and WF 2015 A or vehicle were given i.v. to the mice once a day on specified days (day0→4, day 7→11 and day 14→18).
Tumor weight was calculated as follows: (Tumor length and width were measured by caliper.)
Tumor weight (mg)=1/2×a×b^2, where a represents length and b represents width (mm).
Tumor weights (initial) and (last) were calculated on the first injection day (just before dosing) and on day 21, (the last evaluation day), respectively.
Eight mice were used for each test group and each vehicle-treated control group, respectively.
Drug efficacy was expressed as tumor growth inhibition (%).

[5] = system: Human lung adenocarcinoma A549 cell; assay: TEST 2: in vitro cytotoxicity of WF 2015, A549 cells; format: cell-based; conditions: 120 hours incubation, 37° C.
Method: as §1, §2, §3

[6] = Solubility of WF 2015 A and B (physicochemical properties)
[7] = system: ICR strain mice; assay: TEST 3: acute toxicity of WF 2015 in mice; format: in vivo, mouse (ICR); conditions: 100 mg/kg once a day for 5 days, 5 female ICR mice

## CO[C@@H]1[C@H](OC(=O)/C=C/C(O)C(C)O)CC[C@]2(CO2)[C@H]1[C@@]1(C)O[C@@H]1CC=C(C)C (some centres unmarked) [WF 2015 A]
[1]; 1.0 mg/kg i.v. once a day on day 1, 2, 3, 4 and 7, 8, 9, 10
  Tumor weight: 864 ± 108.7 mg
[1]; 3.3 mg/kg i.v. once a day on day 1, 2, 3, 4 and 7, 8, 9, 10
  Tumor weight: 682 ± 131.5 mg
[1]; 10 mg/kg i.v. once a day on day 1, 2, 3, 4 and 7, 8, 9, 10
  Tumor weight: 27.7 ± 105.6 mg
[2]; 0.0066 ng/ml
  MLR suppression (%): 0.0%
[2]; 0.02 ng/ml
  MLR suppression (%): 0.4%
[2]; 0.066 ng/ml
  MLR suppression (%): 8.5%
[2]; 0.2 ng/ml
  MLR suppression (%): 9.4%
[2]; 6.6 ng/ml
  MLR suppression (%): 49.1%
[2]; 20 ng/ml
  MLR suppression (%): 86.2%
[2]; 40 ng/ml
  MLR suppression (%): 88.0%
[2]; 161 ng/ml
  MLR suppression (%): 87.3%
[2]; 1,250 ng/ml
  MLR suppression (%): 89.0%
[2]; 10,000 ng/ml
  MLR suppression (%): 94.4%
[3]
  IC50 value (concentration required for 50% inhibition of cell growth): 0.65 ng/mL
[4]; 10 mg/kg i.v. once a day
  Tumor Growth Inhibition (%): 41.2%
[4]; 30 mg/kg i.v. once a day
  Tumor Growth Inhibition (%): 62.6%
[5]
  IC50 value (concentration required for 50% inhibition of cell growth): 0.3 ng/mL
[6]; Chloroform, methanol, acetone, ethanol
  Solubility: Soluble
[6]; n-Hexane, water
  Solubility: Insoluble
[7]
  Acute toxicity, abnormal symptom of the mice: no abnormal symptom of the mice was observed

Reference: patent US4910017A, “New compounds WF 2015 A and B” (Fujisawa Pharmaceutical Company, Ltd., priority 1987, dated 1990)
